Data from patent US7807422B2, “Production of flavonoids by recombinant microorganisms” (The Research Foundation of State University of New York, priority 2004, dated 2010).

System: flavanone biosynthesis in recombinant yeast strain INV-4G
Assay: Eriodictyol production from caffeic acid by INV-4G in the presence of luteolin
Assay type: cell-based, S. cerevisiae
Conditions: varying luteolin concentrations (1, 3, 10 mg/L)
Text: Heterologous expression and fermentation. In order to assemble the two different flavone biosynthetic pathways, recombinant INVSc1 carrying plasmid Ycc4c181G was transformed with YC-FSI, YC-FSII or YC-FSII+CPR1 separately, yielding recombinant strains INV-4G+FSI, INV-4G+FSII, and INV-4G+FSII+CPR1. Yeast colonies harboring both plasmids were selected upon growth on SC agar plates lacking leucine and tryptophan (SC-Leu-Trp-). For flavone fermentation purposes, an individual recombinant yeast colony was grown overnight in 10-mL liquid SC-Leu-Trp-containing glucose at 30° C. with shaking. The following day, a portion of this culture was used to seed the main culture of SC-Leu-Trp-containing galactose and raffinose or MA-Leu-Trp-containing galactose and acetate to an Ab600 of 0.4. 0.5 mM of phenylpropanoid acid (cinnamic acid, p-coumaric acid, caffeic acid, ferulic acid) was then added to the main culture, and incubation was carried out at 30° C. with horizontal shaking for a maximum of 92 hours.
The efficiency of eriodictyol production from caffeic acid by INV-4G in the presence of varying luteolin concentrations was also tested.

O=c1cc(-c2ccc(O)c(O)c2)oc2cc(O)cc(O)c12 [luteolin]
regulation (feedback inhibition) of flavanone biosynthesis: did not regulate
